Data taken from article PMC4001115 (International journal of toxicology, 2014).

Legend:
[1] = test system: bone marrow polychromatic erythrocytes (PCEs); experiment: Bone marrow micronucleus analysis; type: in vivo, CD-1 mice; settings: DAC 1.0 mg/kg; for Number of MPCE/1000 PCE (Mean +/− SD): single animal
[2] = Toxicokinetics: plasma DAC by LC-MS/MS after oral gavage; type: in vivo, CD-1 mice; settings: for Cmax / AUC: plasma, po; for AUC: AUCfit
beagle dog = settings: single intravenous injections up to 1 g/kg; cited from earlier work
CD-1 mice = experiment: Microscopic findings; type: in vivo; settings: THU/DAC 167/0.0 mg/kg; for Cytoplasmic Alteration, MK (Minimal): bone marrow
[3] = mice, 100 mg/kg po, cited from earlier work
monkey = settings: single intravenous injections up to 1 g/kg; cited from earlier work
[4] = male, CD-1, mouse, 0.2 mg/kg, males, THU/DAC 167/0.2 mg/kg, Day 1
[5] = male, CD-1, mouse, 0.2 mg/kg, males, THU/DAC 167/0.2 mg/kg, Day 58
[6] = male, CD-1, mouse, 0.4 mg/kg, males, THU/DAC 167/0.4 mg/kg, Day 1
[7] = male, CD-1, mouse, 0.4 mg/kg, males, THU/DAC 167/0.4 mg/kg, Day 58
[8] = male, CD-1, mouse, 1 mg/kg, males, THU/DAC 0/1.0 mg/kg, Day 1
[9] = male, CD-1, mouse, 1 mg/kg, males, THU/DAC 0/1.0 mg/kg, Day 58
[10] = male, CD-1, mouse, 1 mg/kg, males, THU/DAC 167/1.0 mg/kg, Day 1
[11] = male, CD-1, mouse, 1 mg/kg, males, THU/DAC 167/1.0 mg/kg, Day 58

## Nc1ncn([C@H]2C[C@H](O)[C@@H](CO)O2)c(=O)n1 [DAC, 5-aza-2’-deoxycytidine]
[1]; F
  Number of MPCE/PCE Scored: ^*73 / 2000
  PCE/Total Erythrocytes (Mean+/−SD): 0.168±0.05
  PCE/Total Erythrocytes, Change from Control: −65%
  Number of MPCE/1000 PCE (Mean +/− SD): 36.5 ± ^1SD
[1]; M
  Number of MPCE/PCE Scored: ^*41 / 2000
  PCE/Total Erythrocytes (Mean+/−SD): 0.127±0.06
  PCE/Total Erythrocytes, Change from Control: −73%
  Number of MPCE/1000 PCE (Mean +/− SD): 20.5 ± ^1SD
[2]; both, CD-1, mouse, in vivo
  DAC detectable in plasma through (post dose): 180 min
  DAC exposure, female mice compared to males: ~ 2 fold
[2]; female, CD-1, mouse, 0.2 mg/kg, females, THU/DAC 167/0.2 mg/kg, Day 1
  Cmax: 1900 nM
[2]; female, CD-1, mouse, 0.2 mg/kg, females, THU/DAC 167/0.2 mg/kg, Day 58
  Cmax: 960 nM
[2]; female, CD-1, mouse, 0.4 mg/kg, females, THU/DAC 167/0.4 mg/kg, Day 1
  Cmax: 2780 nM
[2]; female, CD-1, mouse, 0.4 mg/kg, females, THU/DAC 167/0.4 mg/kg, Day 58
  Cmax: 1650 nM
[2]; female, CD-1, mouse, 1 mg/kg, females, THU/DAC 0/1.0 mg/kg, Day 1
  Cmax: 2050 nM
[2]; female, CD-1, mouse, 1 mg/kg, females, THU/DAC 0/1.0 mg/kg, Day 58
  Cmax: 1230 nM
[2]; male, CD-1, mouse, in vivo
  DAC detectable in plasma through (post dose): 120 min
[2]; [4]
  AUC: 1.57 µM·h
  Cmax: 1180 nM
[2]; [5]
  AUC: 1.25 µM·h
  Cmax: 700 nM
[2]; [6]
  AUC: 3.08 µM·h
  Cmax: 2620 nM
[2]; [7]
  AUC: 2.11 µM·h
  Cmax: 980 nM
[2]; [8]
  AUC: 0.864 µM·h
  Cmax: 1750 nM
[2]; [9]
  AUC: 0.976 µM·h
  Cmax: 1200 nM
[2]; [10]
  AUC: 7.65 µM·h
  Cmax: 5810 nM
[2]; [11]
  AUC: 5.87 µM·h
  Cmax: 4740 nM
[2]; oral DAC with or without THU
  time of plasma DAC Cmax: ≤ 1 h

## O=C1NC(O)CCN1[C@@H]1O[C@H](CO)[C@@H](O)[C@H]1O (stereo partly drawn) [THU, tetrahydrouridine]
Beagle dog
  toxic effects: no notable toxic effects
CD-1 mice; females, Day 59
  Cytoplasmic Alteration, MK (Minimal): 0/10
  Bone Marrow Hypocellularity, Marked: 0/10
  Bone Marrow Hypocellularity, Moderate: 0/10
  Duodenum Apoptosis, Minimal-Mild: 0/10
  Ileum Apoptosis, Minimal-Mild: 0/10
  Jejunum Apoptosis, Minimal-Mild: 0/10
  Spleen Proliferation, MK, Red Pulp, Minimal-Mild: 0/10
  Uterus Atrophy, Mild: 0/10
CD-1 mice; males, Day 59
  Cytoplasmic Alteration, MK (Minimal): 0/10
  Bone Marrow Hypocellularity, Marked: 0/10
  Bone Marrow Hypocellularity, Moderate: 0/10
  Duodenum Apoptosis, Minimal-Mild: 0/10
  Epididymides Hypospermia, Head, Marked: 0/10
  Epididymides Hypospermia, Head, Moderate: 0/10
  Epididymides Hypospermia, Tail, Mild-moderate: 0/10
  Ileum Apoptosis, Minimal-Mild: 0/10
  Jejunum Apoptosis, Minimal-Mild: 0/10
  Spleen Proliferation, MK, Red Pulp, Minimal-Mild: 0/10
  Testis Degeneration, Seminiferous Tubules, Marked: 0/10
  Testis Degeneration, Seminiferous Tubules, Mild-moderate: 0/10
  Testis Degeneration, Seminiferous Tubules, Severe: 0/10
  Thymus Depletion, Lymphoid Cortex, Marked: 0/10
  Thymus Depletion, Lymphoid Cortex, Mild-Moderate: 0/10
CD-1 mice; females, Day 31
  Bone Marrow Cytoplasmic Alteration, MK, Minimal: 0/6
  Bone Marrow Hypocellularity, Marked: 0/6
  Bone Marrow Hypocellularity, Moderate: 0/6
  Duodenum Apoptosis, Minimal-Mild: 0/6
  Ileum Apoptosis, Minimal-Mild: 0/6
  Jejunum Apoptosis, Minimal-Mild: 0/6
  Spleen Proliferation, MK, Red Pulp, Minimal-Mild: 0/6
  Thymus Depletion, Lymphoid Cortex, Marked: 0/5
  Thymus Depletion, Lymphoid Cortex, Mild-Moderate: 0/5
  Uterus Atrophy, Mild: 0/6
CD-1 mice; males, Day 31
  Bone Marrow Cytoplasmic Alteration, MK, Minimal: 0/6
  Bone Marrow Hypocellularity, Marked: 0/6
  Bone Marrow Hypocellularity, Moderate: 0/6
  Duodenum Apoptosis, Minimal-Mild: 0/6
  Epididymides Hypospermia, Head, Marked: 0/6
  Epididymides Hypospermia, Head, Minimal-moderate: 0/6
  Epididymides Hypospermia, Tail, Mild-moderate: 0/6
  Ileum Apoptosis, Minimal-Mild: 0/6
  Jejunum Apoptosis, Minimal-Mild: 0/6
  Spleen Proliferation, MK, Red Pulp, Minimal-Mild: 0/6
  Testis Degeneration, Seminiferous Tubules, Marked: 0/6
  Testis Degeneration, Seminiferous Tubules, Minimal-mild: 0/6
  Testis Degeneration, Seminiferous Tubules, Moderate: 0/6
  Thymus Depletion, Lymphoid Cortex, Marked: 0/6
  Thymus Depletion, Lymphoid Cortex, Mild-Moderate: 0/6
[3]
  half life: 1.42 h
  oral bioavailability: 20%
[3]; for several hours
  sustained plasma concentrations that inhibit CDA: > 1 µg/mL
monkey
  toxic effects: no notable toxic effects
